The values below come from patent US20130150399A1, “INHIBITORS OF THE UNFOLDED PROTEIN RESPONSE AND METHODS FOR THEIR USE” (The Board of Trustees of the Leland Stanford Junior …, priority 2006, published 2013).

The target of one assay is T1, His6-IRE1α-cyto (Homo sapiens, UniProt O75460).
T1 construct: purified the full cytosolic portion of IRE1α (His6-IRE1α-cyto) containing both kinase and endonuclease domains; His6; made in house
The assay is described as follows: IRE1α endonuclease (in vitro ribonuclease) assay. In kind it is biochemical. As to conditions: 2.5 μM. The method, then:
The in vitro ribonuclease assays were carried out using purified IRE1α-cyto essentially as described. Gonzalez and Walter, Methods Mol Biol 160: 25-36 (2001); Gonzalez et al., Embo J 18: 3119-3132 (1999). For each reaction, 5 μg purified IRE1α-cyto was incubated with 300 ng of fluorescein-labeled RNA stem-loop substrate at 37° C. in a total volume of 300 μl. Aliquots (50 μl) were withdrawn at the indicated times and mixed with an equal volume of stop solution. Id. Reactions were analyzed by SDS-PAGE using 10-20% acrylamide gradient gels. The sequence for the hXBP-1 3′ RNA stem-loop substrate is as follows: • 5′[…] 3′ (SEQ ID NO: 8). […]
HT1080 cells were exposed to DMSO vehicle (lane 1), irestatin 9389 (2.5 μM; lane 2) for 16 hours or Tm (5 μg/ml; lane 3) for 8 hours. Following treatments, cells were harvested, lysed, and analyzed by immunoblotting using anti-Grp78 antibody (top) or anti-actin (bottom) as a loading control. […] Cell lysates were analyzed by Western immunoblotting using anti-IRE1α (bottom) or anti-phospho-IRE1α antibodies (top). […] Lysates were analyzed by Western blot using antisera specific for phospho-JNK1 (top) or total JNK1 (bottom). […] F. Quantification of RNA cleavage kinetics. […] Samples were analyzed as in (E).
Next we determined whether irestatin 9389 inhibited the endonuclease function of IRE1α. […]

The test system of assay [1] is PANC1 pancreatic adenocarcinoma cells. Description: PANC1 tumor growth in vivo. Further details: species or system nude mice. As to conditions: 60 mg/kg ip bolus every 48 hours, 5 doses. As for the experimental part: Dose: 60 mg/kg ip bolus injection every 48 hours. 5 total doses. 5-7 tumors per group. PANC1 pancreatic adenocarcinoma cell line.
PANC1 pancreatic adenocarcinoma cells were implanted subcutaneously into nude mice. Mice were then given a bolus injection of one of the inventive irestatins (1401, 9337, 3611 or 9389) at a dose of 60 mg/kg every 48 hours for a total of 5 doses, with 5-7 tumors being treated per group.

T1 sequence (O75460 465-977 limits assumed): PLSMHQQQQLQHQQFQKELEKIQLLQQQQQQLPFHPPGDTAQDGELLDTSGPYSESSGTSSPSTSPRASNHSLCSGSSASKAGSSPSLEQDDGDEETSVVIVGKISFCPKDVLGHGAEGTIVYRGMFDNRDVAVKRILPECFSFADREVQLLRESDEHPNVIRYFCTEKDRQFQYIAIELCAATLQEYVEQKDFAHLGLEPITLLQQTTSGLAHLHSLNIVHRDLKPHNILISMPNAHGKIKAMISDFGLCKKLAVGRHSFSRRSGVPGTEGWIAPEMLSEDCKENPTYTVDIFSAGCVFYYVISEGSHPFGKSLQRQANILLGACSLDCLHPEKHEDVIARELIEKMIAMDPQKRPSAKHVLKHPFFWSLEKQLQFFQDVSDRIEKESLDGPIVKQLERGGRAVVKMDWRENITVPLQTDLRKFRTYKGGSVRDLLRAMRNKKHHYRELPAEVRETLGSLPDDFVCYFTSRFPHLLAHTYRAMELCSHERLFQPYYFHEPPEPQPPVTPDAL

For the compound `Cc1csc(NC(=O)CSc2nc3c(c(C(F)(F)F)c2C#N)CCC3)n1` [Compound 9389], the “cleavage of XBP-1 target RNA by IRE1α endonuclease” value at His6-IRE1α-cyto is given as “strongly inhibited cleavage”. The tumor growth entry in assay [1] was “significant tumor growth was observed in untreated mice, but not in mice treated with the irestatins”.
